≈ marks a conversion by molar mass, not a printed value.
What was measured:
Format in all cases: functional
[1] = test system: Pseudomonas aeruginosa; assay: Antibacterial activity against Pseudomonas aeruginosa ATCC 27853 incubated for 24 hrs by photometry; details: ATCC 27853, 24 h
[2] = test system: Salmonella enterica subsp. enterica; assay: Antibacterial activity against Salmonella enterica subsp. enterica ATCC 14028 incubated for 24 hrs by photometry; details: ATCC 14028, 24 h
[3] = test system: Staphylococcus aureus; assay: Antibacterial activity against Staphylococcus aureus subsp. aureus ATCC 29213 incubated for 24 hrs by photometry; details: ATCC 29213, 24 h

MIC50 [1] [µg/mL]	MIC50 [2] [µg/mL]	MIC50 [3] [µg/mL]	Structure (SMILES)
> 128	77.9 (≈ 245 µM)	14.3 (≈ 44.9 µM)	CC(C)[C@H]1CC(=O)[C@]23[C@@H]4C=C(CO)C[C@@H](O)[C@@H]4[C@@]2(C)CC[C@]13C
–	1.32	0.81	CC1(C)S[C@@H]2[C@H](NC(=O)Cc3ccccc3)C(=O)N2C1C(=O)[O-].[Na+] (some centres undefined)
> 128	102 (≈ 319 µM)	22.7 (≈ 71.3 µM)	C[C@H](CO)[C@H]1CC(=O)C23[C@@H]4C=C(CO)CC[C@@H]4[C@@]2(C)CC[C@]13C (some centres undefined)

Structure (SMILES)	MIC50 [1] [µg/mL]	MIC50 [2] [µg/mL]	MIC50 [3] [µg/mL]
CC(C)(O/N=C(\C(=O)N[C@@H]1C(=O)N2C(C(=O)[O-])=C(C[n+]3ccccc3)CS[C@H]12)c1csc(N)n1)C(=O)O [CEFTAZIDIME]	0.08 (≈ 0.146 µM)	–	–

Reference: ChEMBL document CHEMBL4627374, “Psathyrins: Antibacterial Diterpenoids from Psathyrella candolleana” (2020)
